Measured values published in article PMC5803215, “Structural basis for amino acid transport by the CAT family of SLC7 transporters” (Nature Communications, 2018).
Residue numbers refer to the chain shown, from its start. Blank lines part the entries; values can stand above or below the compound they belong to.

Experiments:
GkApcT [1] = target: T1, GkApcT (Geobacillus kaustophilus, UniProt Q5L1G5); assay: electrogenic 3H-L-Ala uptake competition in proteoliposomes; assay type: biochemical
T1 construct: gene GK0930; cleavable GFP-His tag (pWaldo-GFP) removed with TEV; expressed in E. coli C43(DE3); co-purifies with E. coli MgtS; purified in DM/DDM, reconstituted in POPE:POPG liposomes
T1 sequence (Q5L1G5 1-471): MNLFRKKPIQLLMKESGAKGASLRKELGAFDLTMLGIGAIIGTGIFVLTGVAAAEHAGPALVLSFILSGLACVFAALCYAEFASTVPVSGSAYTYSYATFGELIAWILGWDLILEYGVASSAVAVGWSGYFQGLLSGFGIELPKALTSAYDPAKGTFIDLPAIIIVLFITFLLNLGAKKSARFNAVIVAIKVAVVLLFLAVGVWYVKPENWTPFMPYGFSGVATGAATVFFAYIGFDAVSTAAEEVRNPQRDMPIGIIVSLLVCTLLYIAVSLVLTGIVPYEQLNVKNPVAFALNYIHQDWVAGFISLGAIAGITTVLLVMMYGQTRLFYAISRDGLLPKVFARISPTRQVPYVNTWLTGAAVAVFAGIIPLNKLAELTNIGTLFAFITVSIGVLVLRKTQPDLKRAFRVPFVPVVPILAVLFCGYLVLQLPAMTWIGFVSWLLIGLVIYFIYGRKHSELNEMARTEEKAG

GkApcT [2] = target: T2, GkApcT (Geobacillus kaustophilus, UniProt Q5L1G5, K191A); assay: thermal stability (nanoDSF); assay type: binding; conditions: 10 mM L-Ala; pH 6.0
T2 construct: gene GK0930; cleavable GFP-His tag (pWaldo-GFP) removed with TEV; expressed in E. coli C43(DE3); co-purifies with E. coli MgtS; purified in DM/DDM, reconstituted in POPE:POPG liposomes
T2 sequence (Q5L1G5 entry or part of it K191A): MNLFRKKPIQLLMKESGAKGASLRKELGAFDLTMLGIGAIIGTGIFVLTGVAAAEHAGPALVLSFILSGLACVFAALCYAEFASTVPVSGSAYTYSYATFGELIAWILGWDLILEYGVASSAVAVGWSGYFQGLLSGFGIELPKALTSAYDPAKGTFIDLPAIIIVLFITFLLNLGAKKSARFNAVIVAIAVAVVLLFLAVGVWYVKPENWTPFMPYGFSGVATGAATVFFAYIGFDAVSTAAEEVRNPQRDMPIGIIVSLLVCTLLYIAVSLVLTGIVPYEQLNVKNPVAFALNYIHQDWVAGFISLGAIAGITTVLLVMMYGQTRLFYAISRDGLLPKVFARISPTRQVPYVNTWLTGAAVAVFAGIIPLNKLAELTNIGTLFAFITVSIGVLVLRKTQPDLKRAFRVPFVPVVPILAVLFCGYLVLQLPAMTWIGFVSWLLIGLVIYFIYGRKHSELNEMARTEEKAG

GkApcT [3] = target: T3, GkApcT (Geobacillus kaustophilus, UniProt Q5L1G5, K191N); assay: thermal stability (nanoDSF); assay type: binding; conditions: 10 mM L-Ala; pH 6.0
T3 construct: gene GK0930; cleavable GFP-His tag (pWaldo-GFP) removed with TEV; expressed in E. coli C43(DE3); co-purifies with E. coli MgtS; purified in DM/DDM, reconstituted in POPE:POPG liposomes
T3 sequence (Q5L1G5 entry or part of it K191N): as the sequence (Q5L1G5 entry or part of it K191A) above, with A191N counted along it

GkApcT [4] = target: T4, GkApcT (Geobacillus kaustophilus, UniProt Q5L1G5, E115Q); assay: thermal stability (nanoDSF); assay type: binding; conditions: 10 mM L-Ala; pH 6.0
T4 construct: gene GK0930; cleavable GFP-His tag (pWaldo-GFP) removed with TEV; expressed in E. coli C43(DE3); co-purifies with E. coli MgtS; purified in DM/DDM, reconstituted in POPE:POPG liposomes
T4 sequence (Q5L1G5 entry or part of it E115Q): as the sequence (Q5L1G5 entry or part of it K191A) above, with E115Q, A191K counted along it

GkApcT [5] = target: T1, GkApcT; assay: thermal stability (nanoDSF); assay type: binding; conditions: 10 mM L-Ala; pH 6.0
GkApcT [6] = target: T5, GkApcT (Geobacillus kaustophilus, UniProt Q5L1G5, R334E); assay: electrogenic 3H-L-Ala uptake competition in proteoliposomes; assay type: biochemical
T5 construct: gene GK0930; cleavable GFP-His tag (pWaldo-GFP) removed with TEV; expressed in E. coli C43(DE3); co-purifies with E. coli MgtS; purified in DM/DDM, reconstituted in POPE:POPG liposomes
T5 sequence (Q5L1G5 entry or part of it R334E): as the sequence (Q5L1G5 entry or part of it K191A) above, with A191K, R334E counted along it

GkApcT [7] = target: T6, GkApcT (Geobacillus kaustophilus, UniProt Q5L1G5, K191R); assay: thermal stability (nanoDSF); assay type: binding; conditions: 10 mM L-Ala; pH 6.0
T6 construct: gene GK0930; cleavable GFP-His tag (pWaldo-GFP) removed with TEV; expressed in E. coli C43(DE3); co-purifies with E. coli MgtS; purified in DM/DDM, reconstituted in POPE:POPG liposomes
T6 sequence (Q5L1G5 entry or part of it K191R): as the sequence (Q5L1G5 entry or part of it K191A) above, with A191R counted along it

GkApcT [8] = target: T7, GkApcT (Geobacillus kaustophilus, UniProt Q5L1G5, M321S); assay: electrogenic 3H-L-Ala uptake competition in proteoliposomes; assay type: biochemical
T7 construct: gene GK0930; cleavable GFP-His tag (pWaldo-GFP) removed with TEV; expressed in E. coli C43(DE3); co-purifies with E. coli MgtS; purified in DM/DDM, reconstituted in POPE:POPG liposomes
T7 sequence (Q5L1G5 1-471 M321S): T1 sequence (Q5L1G5 1-471) with M321S

GkApcT-MgtS heterodimer [9] = target: T8, GkApcT-MgtS heterodimer (Geobacillus kaustophilus, UniProt A5A616+Q5L1G5); assay: thermal stability (circular dichroism); assay type: binding; conditions: pH 6.5
T8 construct: gene GK0930; heterodimer of G. kaustophilus GkApcT with host-derived E. coli MgtS (YneM); GFP-His tag cut with TEV; expressed in E. coli C43(DE3)
T8 sequence (Q5L1G5 1-471): T1 sequence (Q5L1G5 1-471)
T8 sequence (A5A616 1-31): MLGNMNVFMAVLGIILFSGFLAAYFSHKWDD

GkApcT-MgtS heterodimer [10] = target: T8, GkApcT-MgtS heterodimer; assay: X-ray crystal structure; assay type: binding; conditions: site between GkApcT TM5 and MgtS; cholesterol-doped monoolein LCP

IC50 (GkApcT [1]): 2 µM
Tm with ligand (GkApcT [5]): ~58 to ~69
IC50 (GkApcT [6]): 0.4 µM
SMILES: C[C@H](N)C(=O)O [L-Alanine]
dTm (GkApcT [2]): A similar stabilising effect was also observed in the Lys191Ala, Arg and Asn variants
dTm (GkApcT [3]): A similar stabilising effect was also observed in the Lys191Ala, Arg and Asn variants
dTm (GkApcT [4]): Glu115Gln variant can still recognise alanine to the same extent as wild-type protein
dTm (GkApcT [7]): A similar stabilising effect was also observed in the Lys191Ala, Arg and Asn variants

SMILES: N=C(N)NCCC[C@H](N)C(=O)O [L-arginine]
IC50 (GkApcT [8]): 11.4 µM
IC50 (GkApcT [1]): 6000 µM

Tm with ligand (GkApcT-MgtS heterodimer [9]): 57 to 72 °C
SMILES: CC(C)CCC[C@@H](C)[C@H]1CC[C@H]2[C@@H]3CC=C4C[C@@H](OC(=O)CCC(=O)O)CC[C@]4(C)[C@H]3CC[C@]12C [cholesterol hemisuccinate]

SMILES: CC(C)CCC[C@@H](C)[C@H]1CC[C@H]2[C@@H]3CC=C4C[C@@H](O)CC[C@]4(C)[C@H]3CC[C@]12C [cholesterol]
X-ray crystal structure (GkApcT-MgtS heterodimer [10]): we observed density for a cholesterol molecule in this pocket
